Key:
Rattus norvegicus [1] = assay: Recovery of Roc-induced neuromuscular block in Sprague-Dawley rat assessed as […] ratio (TOFr) >= 90% by measuring recovery time at 25 mg/kg, iv (reference value: 597 seconds); format: functional
[2] = Water solubility of the compound measured at 25 degreeC; format: physicochemical
[3] = Toxicity in iv dosed Sprague-Dawley rat assessed as maximum tolerated dose measured upto 14 days; format: organism-based; settings: in vivo, 336 h, time < 14 day
Rattus norvegicus [4] = assay: Recovery of CisA-induced neuromuscular block in Sprague-Dawley rat assessed as […] ratio (TOFr) >= 90% by measuring recovery time at 80 mg/kg, iv (reference value: 784 seconds); format: functional
Rocuronium = assay: Binding affinity to Rocuronium by Competition UV-Vis titration method
[5] = Solubility of the compound in sodium phosphate buffered water; format: physicochemical
[6] = tested on: Midazolium-based-macrocycle; assay: Binding affinity to Midazolium-based-macrocycle by Competition UV-Vis titration method
Vecuronium = assay: Binding affinity to Vecuronium by Competition UV-Vis titration method
Rattus norvegicus [7] = assay: Recovery of Vec-induced neuromuscular block in Sprague-Dawley rat assessed as […] ratio (TOFr) >= 90% by measuring recovery time at 25 mg/kg, iv (reference value: 525 seconds); format: functional
Rattus norvegicus [8] = assay: Recovery of CisA-induced neuromuscular block in Sprague-Dawley rat assessed as […] ratio (TOFr) >= 90% by measuring recovery time at 120 mg/kg, iv (reference value: 784 seconds); format: functional
[9] = Therapeutic index, ratio of toxicity in iv dosed Sprague-Dawley rat assessed as maximum tolerated dose to recovery of CisA-induced neuromuscular block in Sprague-Dawley rat assessed as […] ratio (TOFr) by measuring recovery time at 80 to 100 mg/kg, iv; format: organism-based; settings: in vivo, dose 80-100 mg/kg, read-out: TI
Rattus norvegicus [10] = assay: Recovery of IMC-1-induced neuromuscular block in Sprague-Dawley rat assessed as […] ratio (TOFr) >= 90% by measuring recovery time at 10 mg/kg, iv (reference value: 4021 seconds); format: functional
[11] = Therapeutic index, ratio of toxicity in iv dosed Sprague-Dawley rat assessed as maximum tolerated dose to recovery of Roc/Vec/Panc-induced neuromuscular block in Sprague-Dawley rat assessed as […] ratio (TOFr) by measuring recovery time at 25 mg/kg, iv; format: organism-based; settings: in vivo, read-out: TI
Rhodamine 6G = assay: Binding affinity to Rhodamine 6G by Competition UV-Vis titration method
Proflavine = assay: Binding affinity to Proflavine by Competition UV-Vis titration method
[12] = tested on: Trans-cydohexane-1,4-diartunonium dichloride; assay: Binding affinity to Trans-[…] dichloride by Competition UV-Vis titration method
Cisatracurium = assay: Binding affinity to Cisatracurium by Competition UV-Vis titration method
Rattus norvegicus [13] = assay: Recovery of Pan-induced neuromuscular block in Sprague-Dawley rat assessed as […] ratio (TOFr) >= 90% by measuring recovery time at 25 mg/kg, iv (reference value: 3600 seconds); format: functional
Pancuronium = assay: Binding affinity to Pancuronium by Competition UV-Vis titration method

solubility [2] | SMILES | Time (Rattus norvegicus [1]) | Time (Rattus norvegicus [4]) | other results
750 mg/mL | CC[C@]12N3Cc4c(OCCCS(=O)(=O)[O-])ccc(OCCCS(=O)(=O)[O-])c4CN1C(=O)N1CN4C(=O)N5CN6C(=O)N7CN8C(=O)N9Cc%10c(OCCCS(=O)(=O)[O-])ccc(OCCCS(=O)(=O)[O-])c%10CN%10C(=O)N(CN%11C(=O)N(CN%12C(=O)N(CN(C3=O)[C@]12CC)[C@@H]4[C@H]%125)[C@@H]6[C@H]%117)[C@]8(CC)[C@@]9%10CC.[Na+].[Na+].[Na+].[Na+] | 348 s | – | –
600 mg/mL | Cc1cc(OCCCS(=O)(=O)[O-])c2c(c1OCCCS(=O)(=O)[O-])CN1C(=O)N3CN4C(=O)N5CN6C(=O)N7CN8C(=O)N9Cc%10c(c(OCCCS(=O)(=O)[O-])cc(C)c%10OCCCS(=O)(=O)[O-])CN%10C(=O)N(CN%11C(=O)N(CN%12C(=O)N(CN%13C(=O)N(C2)C1(C)C%133C)C4C%125)C6C%117)C8(C)C%109C.[Na+].[Na+].[Na+].[Na+] (mixture of isomers) | 151 s | – | –
– | C[C@]12N3Cc4c(c(OCC(C(=O)[O-])C(=O)[O-])c5ccccc5c4OCC(C(=O)[O-])C(=O)[O-])CN1C(=O)N1CN4C(=O)N5CN6C(=O)N7CN8C(=O)N9Cc%10c(c(OCC(C(=O)[O-])C(=O)[O-])c%11ccccc%11c%10OCC(C(=O)[O-])C(=O)[O-])CN%10C(=O)N(CN%11C(=O)N(CN%12C(=O)N(CN(C3=O)[C@]12C)[C@@H]4[C@H]%125)[C@@H]6[C@H]%117)[C@]8(C)[C@@]9%10C.[Na+].[Na+].[Na+].[Na+].[Na+].[Na+].[Na+].[Na+] | 84 s | – | –
– | C[C@]12N3Cc4c(c(OCCC(=O)[O-])c5ccccc5c4OCCC(=O)[O-])CN1C(=O)N1CN4C(=O)N5CN6C(=O)N7CN8C(=O)N9Cc%10c(c(OCCC(=O)[O-])c%11ccccc%11c%10OCCC(=O)[O-])CN%10C(=O)N(CN%11C(=O)N(CN%12C(=O)N(CN(C3=O)[C@]12C)[C@@H]4[C@H]%125)[C@@H]6[C@H]%117)[C@]8(C)[C@@]9%10C.[Na+].[Na+].[Na+].[Na+] | 95 s | – | –
520 mg/mL | O=C1N2Cc3c(OCCCS(=O)(=O)[O-])ccc(OCCCS(=O)(=O)[O-])c3CN3C(=O)N4CN5C(=O)N6CN7C(=O)N8CN9C(=O)N%10Cc%11c(OCCCS(=O)(=O)[O-])ccc(OCCCS(=O)(=O)[O-])c%11CN%11C(=O)N(CN%12C(=O)N(CN%13C(=O)N(CN1C41CCCCC231)[C@H]5[C@H]6%13)[C@H]7[C@H]8%12)C91CCCCC%10%111.[Na+].[Na+].[Na+].[Na+] (stereo not given in full) | 203 s | – | –
– | O=C(O)CCSC[C@H]1O[C@@H]2O[C@H]3[C@H](O)[C@@H](O)[C@@H](O[C@H]4[C@H](O)[C@@H](O)[C@@H](O[C@H]5[C@H](O)[C@@H](O)[C@@H](O[C@H]6[C@H](O)[C@@H](O)[C@@H](O[C@H]7[C@H](O)[C@@H](O)[C@@H](O[C@H]8[C@H](O)[C@@H](O)[C@@H](O[C@H]9[C@H](O)C(O)[C@@H](O[C@H]1[C@H](O)[C@H]2O)O[C@@H]9CSCCC(=O)O)O[C@@H]8CSCCC(=O)O)O[C@@H]7CSCCC(=O)O)O[C@@H]6CSCCC(=O)O)O[C@@H]5CSCCC(=O)O)O[C@@H]4CSCCC(=O)O)O[C@@H]3CSCCC(=O)O (stereo not given in full) | – | – | Ka (Rocuronium): 1.05 10^7/M
940 mg/mL | CC[C@]12N3Cc4c(c(OCCCS(=O)(=O)[O-])c(C)c(C)c4OCCCS(=O)(=O)[O-])CN1C(=O)N1CN4C(=O)N5CN6C(=O)N7CN8C(=O)N9Cc%10c(c(OCCCS(=O)(=O)[O-])c(C)c(C)c%10OCCCS(=O)(=O)[O-])CN%10C(=O)N(CN%11C(=O)N(CN%12C(=O)N(CN(C3=O)[C@]12CC)[C@@H]4[C@H]%125)[C@@H]6[C@H]%117)[C@]8(CC)[C@@]9%10CC.[Na+].[Na+].[Na+].[Na+] | 31 s | 130 s | –
870 mg/mL | COc1cc(OCCCS(=O)(=O)[O-])c2c(c1OCCCS(=O)(=O)[O-])CN1C(=O)N3CN4C(=O)N5CN6C(=O)N7CN8C(=O)N9Cc%10c(c(OCCCS(=O)(=O)[O-])cc(OC)c%10OCCCS(=O)(=O)[O-])CN%10C(=O)N(CN%11C(=O)N(CN%12C(=O)N(CN%13C(=O)N(C2)C1(C)C%133C)C4C%125)C6C%117)C8(C)C%109C.[Na+].[Na+].[Na+].[Na+] (stereo not given) | 40 s | – | –
– | CN(C)C(=O)Oc1cccc([N+](C)(C)C)c1 [NEOSTIGMINE] | 409 s | 276 s | –
– | C[C@]12N3Cc4c(c(OCC(=O)[O-])c5ccccc5c4OCC(=O)[O-])CN1C(=O)N1CN4C(=O)N5CN6C(=O)N7CN8C(=O)N9Cc%10c(c(OCC(=O)[O-])c%11ccccc%11c%10OCC(=O)[O-])CN%10C(=O)N(CN%11C(=O)N(CN%12C(=O)N(CN(C3=O)[C@]12C)[C@@H]4[C@H]%125)[C@@H]6[C@H]%117)[C@]8(C)[C@@]9%10C.[Na+].[Na+].[Na+].[Na+] | 108 s | – | –

SMILES | solubility [2] | Time (Rattus norvegicus [1]) | Time (Rattus norvegicus [4]) | other results
CC[C@]12N3Cc4c(c(OCCCS(=O)(=O)[O-])c5ccccc5c4OCCCS(=O)(=O)[O-])CN1C(=O)N1CN4C(=O)N5CN6C(=O)N7CN8C(=O)N9Cc%10c(c(OCCCS(=O)(=O)[O-])c%11ccccc%11c%10OCCCS(=O)(=O)[O-])CN%10C(=O)N(CN%11C(=O)N(CN%12C(=O)N(CN(C3=O)[C@]12CC)[C@@H]4[C@H]%125)[C@@H]6[C@H]%117)[C@]8(CC)[C@@]9%10CC.[Na+].[Na+].[Na+].[Na+] | 670 mg/mL | 19 s | 57 s | MTD [3]: 500 mg/kg
Cc1c(C)c(OCCCS(=O)(=O)[O-])c2c(c1OCCCS(=O)(=O)[O-])CN1C(=O)N3CN4C(=O)N5CN6C(=O)N7CN8C(=O)N9Cc%10c(c(OCCCS(=O)(=O)[O-])c(C)c(C)c%10OCCCS(=O)(=O)[O-])CN%10C(=O)N(CN%11C(=O)N(CN%12C(=O)N(CN%13C(=O)N(C2)[C@]1(C)[C@]%133C)[C@@H]4[C@@H]5%12)[C@@H]6[C@@H]7%11)[C@]8(C)[C@]%109C.[Na+].[Na+].[Na+].[Na+] | 500 mg/mL | 30 s | 35 s | solubility [5]: 563 mg/mL; Ka [6]: 119 10^7/M; Ka (Vecuronium): 2.92 10^7/M; Time (Rattus norvegicus [7]): 13 s; Time (Rattus norvegicus [8]): 28 s; selectivity ratio [9]: 18.8; Time (Rattus norvegicus [10]): 13 s; selectivity ratio [11]: 60; Ka (Rhodamine 6G): 0.045 10^7/M; Ka (Proflavine): 13 10^7/M; Ka [12]: 0.069 10^7/M; Ka (Rocuronium): 9.84 10^7/M; Ka (Cisatracurium): 0.13 10^7/M; Time (Rattus norvegicus [13]): 21 s; MTD [3]: 500 mg/kg; Ka (Pancuronium): 51 10^7/M

Source: ChEMBL document CHEMBL6120965, “Structure-Activity Relationship Studies Leading to the Discovery of Highly Water-Soluble and Biocompatible Acyclic Cucurbit[n]uril FY-3451 as a Universal Antagonist That Rapidly Reverses Neuromuscular Blocking Agents In Vivo” (J Med Chem, 2024)
